Patent US20070270312A1, “Heteroaroyl-Substituted Serineamides” (priority 2004, published 2007)

Columns and labels:
Amaranthus retroflexus = test: greenhouse post-emergence herbicidal test, pig weed; format: in vivo; details: 2 to 4 weeks; for post-emergence action against pig weed: application rate 1.0 kg/ha a.s.; for post-emergence control of pig weed: application rate 0.5 kg/ha a.s.
From the text: (§1) The seeds of the test plants were sown separately for each species. For the post-emergence treatment, the test plants were first grown to a height of 3 to 15 cm, depending on the plant habit, and only then treated with the active ingredients which had been suspended or emulsified in water. For this purpose, the test plants were either sown directly and grown in the same containers, or they were first grown separately as seedlings and transplanted into the test containers a few days prior to treatment. The rate of application for the post-emergence treatment was 1.0 or 0.5 kg/ha of a.s. (active substance). Depending on the species, the plants were kept at 10-25° C. or 20-35° C. The test period extended over 2 to 4 weeks. During this time, the plants were tended, and their response to the individual treatments was evaluated. Evaluation was carried out using a scale from 0 to 100.100 means no emergence of the plants, or complete destruction of at least the aerial parts, and 0 means no damage, or normal course of growth. The plants used in the greenhouse experiments belonged to the following species: [table]

Chenopodium album = test: greenhouse post-emergence herbicidal test, lambsquarters; format: in vivo; details: 2 to 4 weeks; for post-emergence action against lambsquarters: application rate 1.0 kg/ha a.s.; for post-emergence control of lambsquarters: application rate 0.5 kg/ha a.s.
From the text: as §1

Setaria viridis = test: greenhouse post-emergence herbicidal test, green foxtail; format: in vivo; details: 2 to 4 weeks; for post-emergence action against green foxtail: application rate 1.0 kg/ha a.s.; for post-emergence control of green foxtail: application rate 0.5 kg/ha a.s.
From the text: as §1

Row | melting point [°C] | SMILES | post-emergence action against pig weed (Amaranthus retroflexus) | post-emergence action against lambsquarters (Chenopodium album) | post-emergence action against green foxtail (Setaria viridis) | post-emergence control of pig weed (Amaranthus retroflexus) | post-emergence control of lambsquarters (Chenopodium album) | post-emergence control of green foxtail (Setaria viridis)
1 | – | CNC(=O)C(NC(=O)c1cn(C)nc1C(F)(F)F)C(O)c1cccs1 (mixture of isomers) [Compound 3.5] | very good | very good | very good | – | – | –
2 | – | CNC(=O)C(NC(=O)c1cn(C)nc1C(F)(F)F)C(OC(=O)N(C)C)c1cccs1 (mixture of isomers) [Compound 3.6] | – | – | – | very good | very good | very good
3 | – | CNC(=O)C(NC(=O)c1cn(C)nc1C(F)(F)F)C(O)c1ccn[nH]1 (mixture of isomers) [Compound 3.17] | very good | very good | very good | – | – | –
4 | – | CNC(=O)C(NC(=O)c1cn(C)nc1C(F)(F)F)C(OC(C)=O)c1ccn[nH]1 (mixture of isomers) [Compound 3.19] | – | – | – | very good | very good | very good
5 | – | CNC(=O)C(NC(=O)c1cn(C)nc1C(F)(F)F)C(O)c1nccs1 (mixture of isomers) [Compound 3.51] | very good | very good | very good | – | – | –
6 | – | CNC(=O)C(NC(=O)c1cn(C)nc1C(F)(F)F)C(O)c1nccs1 (mixture of isomers) [Compound 3.52] | very good | very good | very good | – | – | –
7 | – | CNC(=O)C(NC(=O)c1cn(C)nc1C(F)(F)F)C(OC(C)=O)c1nccs1 (mixture of isomers) [Compound 3.54] | – | – | – | very good | very good | very good
8 | – | CNC(=O)C(NC(=O)c1cn(C)nc1C(F)(F)F)C(OC(=O)N(C)C)c1nccs1 (mixture of isomers) [Compound 3.57] | very good | very good | very good | – | – | –
9 | – | CNC(=O)C(NC(=O)c1cn(C)nc1C(F)(F)F)C(OC(=O)N(C)C)c1nccs1 (mixture of isomers) [Compound 3.59] | very good | very good | very good | – | – | –
10 | – | CNC(=O)C(NC(=O)c1cn(C)nc1C(F)(F)F)C(O)c1ccccn1 (racemic) [Compound 3.1] | very good | very good | very good | – | – | –
11 | – | CNC(=O)C(NC(=O)c1cn(C)nc1C(F)(F)F)C(O)c1cccc(C)n1 (racemic) [Compound 3.2] | – | – | – | very good | very good | very good
12 | 206 | CNC(=O)C(NC(=O)c1cscc1C(F)(F)F)C(O)c1cnc2ccccc2c1 (racemic) [Compound 3.15, rac-erythro-N-(2-hydroxy-1-methylcarbamoyl-2-quinolin-3-ylethyl)-4-trifluoromethyl-thiophene-3-carboxamide] | – | – | – | – | – | –
13 | – | CNC(=O)C(NC(=O)c1cn(C)nc1C(F)(F)F)C(O)c1ccn(C)n1 (racemic) [Compound 3.33] | very good | very good | very good | – | – | –
